Laboratory results reported in the supplement of paper PMC10307832.

Columns and labels:
Test in all cases: relative viability (nuclei count vs DMSO), 5 days (fraction); higher = more cells survive
[1] = tested on: LK-2
How it was run: (§1)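 Lung cancer cell lines were pin-tool dosed in 1536-well plates on the day after seeding, with either a lone drug or a fixed anchor-drug dose plus five library-drug doses (not always all listed) in √10 steps. Nuclei were counted on 4× images after 5 days. Relative viability is the ratio of treated-well to vehicle-well nuclei counts, with each value a median of duplicate plates.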

[2] = tested on: NCI-H661
How it was run: as §1

[3] = tested on: NCI-H520
How it was run: as §1

[4] = tested on: PC-3 [JPC-3]
How it was run: as §1

[5] = tested on: RERF-LC-KJ
How it was run: as §1

[6] = tested on: NCI-H1355
How it was run: as §1

[7] = tested on: NCI-H1563
How it was run: as §1

[8] = tested on: SW 1573
How it was run: as §1

[9] = tested on: HCC-827
How it was run: as §1

[10] = tested on: SK-MES-1
How it was run: as §1

[11] = tested on: NCI-H2405
How it was run: as §1

[12] = tested on: NCI-H2228
How it was run: as §1

[13] = tested on: NCI-H1651
How it was run: as §1

[14] = tested on: ABC-1
How it was run: as §1

[15] = tested on: PC-14
How it was run: as §1

[16] = tested on: HCC-15
How it was run: as §1

[17] = tested on: H3255
How it was run: as §1

[18] = tested on: COR-L23
How it was run: as §1

[19] = tested on: NCI-H1650
How it was run: as §1

[20] = tested on: EKVX
How it was run: as §1

[21] = tested on: NCI-H322M
How it was run: as §1

[22] = tested on: NCI-H1734
How it was run: as §1

[23] = tested on: CAL-12T
How it was run: as §1

[24] = tested on: NCI-H1437
How it was run: as §1

With COc1cc(N2CCC(C(N)=O)CC2)ccc1Nc1nc(N)c(Cl)c(Nc2ccccc2S(=O)(=O)C(C)C)n1 [HG-5-88-01] + N=C(N)NC(=N)NCCc1ccccc1 [Phenformin] (partner 250 µM) as the molecule, how does the relative viability ([1]; first compound 0.04 µM) read?
Its relative viability is 0.516.

What about the relative viability ([1]; first compound 0.1265 µM) of the same molecule?
Its relative viability is 0.394.

And the relative viability ([1]; first compound 0.4 µM)?
The relative viability was 0.176.

And the relative viability ([1]; first compound 1.265 µM)?
Its relative viability is 0.352.

And the relative viability ([1]; first compound 4 µM)?
Its relative viability is 0.198.

What about the relative viability ([2]; first compound 0.04 µM) of the same molecule?
The relative viability was 0.301.

And the relative viability ([2]; first compound 0.1265 µM)?
The relative viability was 0.277.

What about the relative viability ([2]; first compound 0.4 µM) of the same molecule?
Its relative viability is 0.259.

And the relative viability ([2]; first compound 1.265 µM)?
The relative viability was 0.24.

And the relative viability ([2]; first compound 4 µM)?
The relative viability was 0.248.

What about the relative viability ([3]; first compound 0.04 µM) of the same molecule?
Its relative viability is 0.441.

And the relative viability ([3]; first compound 0.1265 µM)?
The relative viability was 0.67.

What about the relative viability ([3]; first compound 0.4 µM) of the same molecule?
The relative viability was 0.57.

What about the relative viability ([3]; first compound 1.265 µM) of the same molecule?
Its relative viability is 0.431.

And the relative viability ([3]; first compound 4 µM)?
The relative viability was 0.492.

And the relative viability ([4]; first compound 0.04 µM)?
Its relative viability is 0.48.

What about the relative viability ([4]; first compound 0.1265 µM) of the same molecule?
The relative viability was 0.457.

What about the relative viability ([4]; first compound 0.4 µM) of the same molecule?
Its relative viability is 0.488.

What about the relative viability ([4]; first compound 1.265 µM) of the same molecule?
Its relative viability is 0.461.

What about the relative viability ([4]; first compound 4 µM) of the same molecule?
The relative viability was 0.39.

And the relative viability ([5]; first compound 0.04 µM)?
The relative viability was 0.421.

And the relative viability ([5]; first compound 0.1265 µM)?
Its relative viability is 0.4.

And the relative viability ([5]; first compound 0.4 µM)?
The relative viability was 0.407.

And the relative viability ([5]; first compound 1.265 µM)?
Its relative viability is 0.371.

And the relative viability ([5]; first compound 4 µM)?
Its relative viability is 0.241.

And the relative viability ([6]; first compound 0.04 µM)?
Its relative viability is 0.487.

And the relative viability ([6]; first compound 0.1265 µM)?
The relative viability was 0.493.

And the relative viability ([6]; first compound 0.4 µM)?
Its relative viability is 0.431.

What about the relative viability ([6]; first compound 1.265 µM) of the same molecule?
The relative viability was 0.455.

What about the relative viability ([6]; first compound 4 µM) of the same molecule?
The relative viability was 0.316.

What about the relative viability ([7]; first compound 0.04 µM) of the same molecule?
Its relative viability is 0.7.

And the relative viability ([7]; first compound 0.1265 µM)?
The relative viability was 0.64.

What about the relative viability ([7]; first compound 0.4 µM) of the same molecule?
Its relative viability is 0.683.

And the relative viability ([7]; first compound 1.265 µM)?
The relative viability was 0.604.

And the relative viability ([7]; first compound 4 µM)?
The relative viability was 0.601.

And the relative viability ([8]; first compound 0.04 µM)?
Its relative viability is 0.335.

And the relative viability ([8]; first compound 0.1265 µM)?
The relative viability was 0.368.

What about the relative viability ([8]; first compound 0.4 µM) of the same molecule?
Its relative viability is 0.324.

What about the relative viability ([8]; first compound 1.265 µM) of the same molecule?
Its relative viability is 0.229.

What about the relative viability ([8]; first compound 4 µM) of the same molecule?
The relative viability was 0.344.

And the relative viability ([9]; first compound 0.04 µM)?
Its relative viability is 0.432.

And the relative viability ([9]; first compound 0.1265 µM)?
Its relative viability is 0.413.

And the relative viability ([9]; first compound 0.4 µM)?
Its relative viability is 0.384.

And the relative viability ([9]; first compound 1.265 µM)?
Its relative viability is 0.29.

What about the relative viability ([9]; first compound 4 µM) of the same molecule?
The relative viability was 0.249.

What about the relative viability ([10]; first compound 0.04 µM) of the same molecule?
Its relative viability is 0.665.

What about the relative viability ([10]; first compound 0.1265 µM) of the same molecule?
The relative viability was 0.646.

And the relative viability ([10]; first compound 0.4 µM)?
Its relative viability is 0.652.

And the relative viability ([10]; first compound 1.265 µM)?
The relative viability was 0.602.

What about the relative viability ([10]; first compound 4 µM) of the same molecule?
The relative viability was 0.643.

What about the relative viability ([11]; first compound 0.04 µM) of the same molecule?
The relative viability was 0.46.

And the relative viability ([11]; first compound 0.1265 µM)?
Its relative viability is 0.484.

What about the relative viability ([11]; first compound 0.4 µM) of the same molecule?
The relative viability was 0.469.

What about the relative viability ([11]; first compound 1.265 µM) of the same molecule?
Its relative viability is 0.38.

And the relative viability ([11]; first compound 4 µM)?
Its relative viability is 0.432.

And the relative viability ([12]; first compound 0.04 µM)?
The relative viability was 0.146.

And the relative viability ([12]; first compound 0.1265 µM)?
Its relative viability is 0.124.

What about the relative viability ([12]; first compound 0.4 µM) of the same molecule?
The relative viability was 0.174.

And the relative viability ([12]; first compound 1.265 µM)?
Its relative viability is 0.0974.

What about the relative viability ([12]; first compound 4 µM) of the same molecule?
Its relative viability is 0.0828.

And the relative viability ([13]; first compound 0.04 µM)?
Its relative viability is 0.358.

What about the relative viability ([13]; first compound 0.1265 µM) of the same molecule?
Its relative viability is 0.341.

What about the relative viability ([13]; first compound 0.4 µM) of the same molecule?
The relative viability was 0.367.

And the relative viability ([13]; first compound 1.265 µM)?
The relative viability was 0.348.

And the relative viability ([13]; first compound 4 µM)?
The relative viability was 0.346.

And the relative viability ([14]; first compound 0.04 µM)?
The relative viability was 0.272.

And the relative viability ([14]; first compound 0.1265 µM)?
Its relative viability is 0.233.

And the relative viability ([14]; first compound 0.4 µM)?
Its relative viability is 0.2.

And the relative viability ([14]; first compound 1.265 µM)?
Its relative viability is 0.207.

What about the relative viability ([14]; first compound 4 µM) of the same molecule?
Its relative viability is 0.24.

And the relative viability ([15]; first compound 0.04 µM)?
The relative viability was 0.65.

And the relative viability ([15]; first compound 0.1265 µM)?
Its relative viability is 0.522.

What about the relative viability ([15]; first compound 0.4 µM) of the same molecule?
The relative viability was 0.484.

And the relative viability ([15]; first compound 1.265 µM)?
The relative viability was 0.212.

What about the relative viability ([15]; first compound 4 µM) of the same molecule?
Its relative viability is 0.103.

What about the relative viability ([16]; first compound 0.04 µM) of the same molecule?
The relative viability was 0.528.

What about the relative viability ([16]; first compound 0.1265 µM) of the same molecule?
Its relative viability is 0.488.

And the relative viability ([16]; first compound 0.4 µM)?
The relative viability was 0.4.

And the relative viability ([16]; first compound 1.265 µM)?
Its relative viability is 0.461.

What about the relative viability ([16]; first compound 4 µM) of the same molecule?
The relative viability was 0.231.

What about the relative viability ([17]; first compound 0.04 µM) of the same molecule?
The relative viability was 0.381.

And the relative viability ([17]; first compound 0.1265 µM)?
Its relative viability is 0.325.

And the relative viability ([17]; first compound 0.4 µM)?
The relative viability was 0.332.

What about the relative viability ([17]; first compound 4 µM) of the same molecule?
Its relative viability is 0.32.

And the relative viability ([18]; first compound 0.04 µM)?
Its relative viability is 0.458.

What about the relative viability ([18]; first compound 0.1265 µM) of the same molecule?
Its relative viability is 0.407.

And the relative viability ([18]; first compound 0.4 µM)?
Its relative viability is 0.406.

What about the relative viability ([18]; first compound 1.265 µM) of the same molecule?
Its relative viability is 0.377.

And the relative viability ([18]; first compound 4 µM)?
The relative viability was 0.39.

What about the relative viability ([19]; first compound 0.04 µM) of the same molecule?
The relative viability was 0.452.

What about the relative viability ([19]; first compound 0.1265 µM) of the same molecule?
Its relative viability is 0.386.

And the relative viability ([19]; first compound 0.4 µM)?
The relative viability was 0.254.

What about the relative viability ([19]; first compound 1.265 µM) of the same molecule?
The relative viability was 0.236.

What about the relative viability ([19]; first compound 4 µM) of the same molecule?
Its relative viability is 0.259.

And the relative viability ([20]; first compound 0.04 µM)?
The relative viability was 0.276.

What about the relative viability ([20]; first compound 0.1265 µM) of the same molecule?
The relative viability was 0.262.

And the relative viability ([20]; first compound 0.4 µM)?
Its relative viability is 0.204.

What about the relative viability ([20]; first compound 4 µM) of the same molecule?
Its relative viability is 0.226.

What about the relative viability ([21]; first compound 0.04 µM) of the same molecule?
Its relative viability is 0.793.

What about the relative viability ([21]; first compound 0.1265 µM) of the same molecule?
Its relative viability is 0.669.

What about the relative viability ([21]; first compound 0.4 µM) of the same molecule?
Its relative viability is 0.689.

And the relative viability ([21]; first compound 4 µM)?
The relative viability was 0.704.

What about the relative viability ([22]; first compound 0.04 µM) of the same molecule?
Its relative viability is 0.345.

What about the relative viability ([22]; first compound 0.1265 µM) of the same molecule?
The relative viability was 0.364.

And the relative viability ([22]; first compound 0.4 µM)?
The relative viability was 0.333.

What about the relative viability ([22]; first compound 1.265 µM) of the same molecule?
The relative viability was 0.371.

What about the relative viability ([22]; first compound 4 µM) of the same molecule?
The relative viability was 0.355.

What about the relative viability ([23]; first compound 0.04 µM) of the same molecule?
Its relative viability is 0.543.

And the relative viability ([23]; first compound 0.1265 µM)?
Its relative viability is 0.572.

And the relative viability ([23]; first compound 0.4 µM)?
Its relative viability is 0.533.

What about the relative viability ([23]; first compound 1.265 µM) of the same molecule?
The relative viability was 0.392.

And the relative viability ([23]; first compound 4 µM)?
Its relative viability is 0.253.

What about the relative viability ([24]; first compound 0.04 µM) of the same molecule?
Its relative viability is 0.37.

And the relative viability ([24]; first compound 0.1265 µM)?
Its relative viability is 0.335.

What about the relative viability ([24]; first compound 0.4 µM) of the same molecule?
The relative viability was 0.466.

What about the relative viability ([24]; first compound 1.265 µM) of the same molecule?
The relative viability was 0.37.

What about the relative viability ([24]; first compound 4 µM) of the same molecule?
The relative viability was 0.194.
